# Tests used:
# Type in all cases: in vivo
# Triticum aestivum = assay: Crop compatibility post-emergence, greenhouse pot test
# Outline: (§1)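 Visual % damage versus untreated plants, read about 3 weeks after treatment (100% = plants died, 0% = as control). Crops were sown in sandy loam pots in a greenhouse and sprayed at one-leaf stage with WP/EC compound in water with 0.5% additive, 600 L/ha.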
# Matricaria inodora [1] = assay: Herbicidal action pre-emergence, greenhouse pot test
# Veronica persica [2] = assay: as above
# Outline: (§2)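 Pre-emergence soil-surface spray, WP/EC formulations in water plus 0.5% additive, 600 L/ha spray volume; rate 320 g/ha or lower. Greenhouse ~3 wk. Visual % efficacy vs untreated (100% = plants dead, 0% = like control).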
# Pharbitis purpurea [3] = assay: as above
# Outline: as §2
# Abutilon theophrasti [4] = assay: as above
# Outline: as §2
# Stellaria media [5] = assay: as above
# Outline: as §2
# Viola tricolor [6] = assay: as above
# Outline: as §2
# Amaranthus retroflexus [7] = assay: as above
# Outline: as §2
# Polygonum convolvulus [8] = assay: as above
# Outline: as §2
# Echinochloa crus-galli [9] = assay: as above; conditions: application rate 320 g/ha
# Outline: as §2
# Setaria viridis [10] = assay: as above
# Outline: as §2
# Cyperus esculentus = assay: as above; conditions: application rate 320 g/ha
# Outline: as §2
# Lolium rigidum [11] = assay: as above
# Outline: as §2
# Hordeum murinum [12] = assay: as above; conditions: application rate 320 g/ha
# Outline: as §2
# Alopecurus myosuroides [13] = assay: as above; conditions: application rate 320 g/ha
# Outline: as §2
# Avena fatua = assay: as above; conditions: application rate 320 g/ha
# Outline: as §2
# Veronica persica [14] = assay: Herbicidal action post-emergence, greenhouse pot test
# Outline: (§3)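 Sandy loam pots, greenhouse; one-leaf stage (2–3 wk post-sowing); WP/EC spray as aqueous suspension/emulsion + 0.5% additive, 600 L/ha; rate ≤80 g/ha; visual % efficacy vs untreated at ~3 wk.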
# Pharbitis purpurea [15] = assay: as above
# Outline: as §3
# Abutilon theophrasti [16] = assay: as above
# Outline: as §3
# Stellaria media [17] = assay: as above
# Outline: as §3
# Viola tricolor [18] = assay: as above
# Outline: as §3
# Amaranthus retroflexus [19] = assay: as above
# Outline: as §3
# Polygonum convolvulus [20] = assay: as above
# Outline: as §3
# Echinochloa crus-galli [21] = assay: as above
# Outline: as §3
# Setaria viridis [22] = assay: as above
# Outline: as §3
# Lolium rigidum [23] = assay: as above
# Outline: as §3
# Hordeum murinum [24] = assay: as above
# Outline: as §3
# Matricaria inodora [25] = assay: as above
# Outline: as §3
# Digitaria sanguinalis = assay: as above; conditions: application rate 20 g/ha
# Oryza sativa = assay: Crop compatibility post-emergence, greenhouse pot test
# Outline: as §1
# Zea mays = assay: as above
# Outline: as §1
# Alopecurus myosuroides [26] = assay: Herbicidal action post-emergence, greenhouse pot test; conditions: application rate 80 g/ha, scored visually after about 3 weeks vs untreated controls
# Outline: as §3
SMILES,Pharbitis purpurea (Efficacy in %) (Pharbitis purpurea [3]; application rate 320 g/ha),Abutilon theophrasti (Efficacy in %) (Abutilon theophrasti [4]; application rate 320 g/ha),Viola tricolor (Efficacy in %) (Viola tricolor [6]; application rate 320 g/ha),Polygonum convolvulus (Efficacy in %) (Polygonum convolvulus [8]; application rate 320 g/ha),Echinochloa crus-galli (Efficacy in %) (Echinochloa crus-galli [9]),Setaria viridis (Efficacy in %) (Setaria viridis [10]; application rate 320 g/ha),Cyperus esculentus (Efficacy in %) (Cyperus esculentus),Lolium rigidum (Efficacy in %) (Lolium rigidum [11]; application rate 320 g/ha),Hordeum murinum (Efficacy in %) (Hordeum murinum [12]),Alopecurus myosuroides (Efficacy in %) (Alopecurus myosuroides [13]),Avena fatua (Efficacy in %) (Avena fatua),Veronica persica (Efficacy in %) (Veronica persica [14]; application rate 80 g/ha),Pharbitis purpurea (Efficacy in %) (Pharbitis purpurea [15]; application rate 80 g/ha),Abutilon theophrasti (Efficacy in %) (Abutilon theophrasti [16]; application rate 80 g/ha),Stellaria media (Efficacy in %) (Stellaria media [17]; application rate 80 g/ha),Polygonum convolvulus (Efficacy in %) (Polygonum convolvulus [20]; application rate 80 g/ha),Echinochloa crus-galli (Efficacy in %) (Echinochloa crus-galli [21]; application rate 80 g/ha),Setaria viridis (Efficacy in %) (Setaria viridis [22]; application rate 80 g/ha),Lolium rigidum (Efficacy in %) (Lolium rigidum [23]; application rate 80 g/ha),Hordeum murinum (Efficacy in %) (Hordeum murinum [24]; application rate 80 g/ha),also measured
CC(Sc1cc(-n2c(=O)cc(C(F)(F)F)n(C)c2=O)c(F)cc1Cl)C(=O)OCCC(=O)OC(C)(C)C (stereo not drawn) [I.1-5],100%,100%,100%,100%,100%,100%,80%,100%,100%,100%,100%,100%,100%,100%,100%,100%,100%,100%,80%,80%,Triticum aestivum (Efficacy in %) (Triticum aestivum; application rate 80 g/ha): 20%; Matricaria inodora (Efficacy in %) (Matricaria inodora [1]; application rate 80 g/ha): 100%; Veronica persica (Efficacy in %) (Veronica persica [2]; application rate 320 g/ha): 100%; Stellaria media (Efficacy in %) (Stellaria media [5]; application rate 80 g/ha): 100%; Amaranthus retroflexus (Efficacy in %) (Amaranthus retroflexus [7]; application rate 80 g/ha): 100%; Viola tricolor (Efficacy in %) (Viola tricolor [18]; application rate 20 g/ha): 100%; Amaranthus retroflexus (Efficacy in %) (Amaranthus retroflexus [19]; application rate 80 g/ha): 100%; Matricaria inodora (Efficacy in %) (Matricaria inodora [25]; application rate 80 g/ha): 100%
COC(=O)C1(OC(=O)C(C)Sc2cc(-n3c(=O)cc(C(F)(F)F)n(C)c3=O)c(F)cc2Cl)CC1 (stereo not drawn) [I.1-102],,,,,,,,,,,,,,,,,,,,,Digitaria sanguinalis (Efficacy in %) (Digitaria sanguinalis): 100%; Oryza sativa (Efficacy in %) (Oryza sativa; application rate 5 g/ha): 0%; Zea mays (Efficacy in %) (Zea mays; application rate 5 g/ha): 0%; Veronica persica (Efficacy in %) (Veronica persica [14]; application rate 20 g/ha): 100%; Pharbitis purpurea (Efficacy in %) (Pharbitis purpurea [15]; application rate 20 g/ha): 100%; Abutilon theophrasti (Efficacy in %) (Abutilon theophrasti [16]; application rate 20 g/ha): 100%; Stellaria media (Efficacy in %) (Stellaria media [17]; application rate 20 g/ha): 80%; Viola tricolor (Efficacy in %) (Viola tricolor [18]; application rate 20 g/ha): 100%; Amaranthus retroflexus (Efficacy in %) (Amaranthus retroflexus [19]; application rate 20 g/ha): 100%; Polygonum convolvulus (Efficacy in %) (Polygonum convolvulus [20]; application rate 20 g/ha): 100%; Echinochloa crus-galli (Efficacy in %) (Echinochloa crus-galli [21]; application rate 20 g/ha): 100%; Setaria viridis (Efficacy in %) (Setaria viridis [22]; application rate 20 g/ha): 100%; Lolium rigidum (Efficacy in %) (Lolium rigidum [23]; application rate 20 g/ha): 80%; Hordeum murinum (Efficacy in %) (Hordeum murinum [24]; application rate 20 g/ha): 100%; Matricaria inodora (Efficacy in %) (Matricaria inodora [25]; application rate 20 g/ha): 100%
CC(C)NC(=O)COC(=O)C(C)Sc1cc(-n2c(=O)cc(C(F)(F)F)n(C)c2=O)c(F)cc1Cl (stereo not drawn) [I.1-184],,,,,100%,,,100%,90%,90%,90%,100%,100%,100%,100%,100%,100%,,100%,80%,Zea mays (Efficacy in %) (Zea mays; application rate 20 g/ha): 20%; Matricaria inodora (Efficacy in %) (Matricaria inodora [1]; application rate 80 g/ha): 100%; Veronica persica (Efficacy in %) (Veronica persica [2]; application rate 80 g/ha): 100%; Pharbitis purpurea (Efficacy in %) (Pharbitis purpurea [3]; application rate 80 g/ha): 100%; Abutilon theophrasti (Efficacy in %) (Abutilon theophrasti [4]; application rate 80 g/ha): 100%; Stellaria media (Efficacy in %) (Stellaria media [5]; application rate 80 g/ha): 100%; Viola tricolor (Efficacy in %) (Viola tricolor [6]; application rate 80 g/ha): 100%; Amaranthus retroflexus (Efficacy in %) (Amaranthus retroflexus [7]; application rate 80 g/ha): 100%; Polygonum convolvulus (Efficacy in %) (Polygonum convolvulus [8]; application rate 80 g/ha): 100%; Setaria viridis (Efficacy in %) (Setaria viridis [10]; application rate 80 g/ha): 100%; Viola tricolor (Efficacy in %) (Viola tricolor [18]; application rate 80 g/ha): 100%; Amaranthus retroflexus (Efficacy in %) (Amaranthus retroflexus [19]; application rate 80 g/ha): 100%; Setaria viridis (Efficacy in %) (Setaria viridis [22]; application rate 20 g/ha): 100%; Alopecurus myosuroides (Efficacy in %) (Alopecurus myosuroides [26]): 80%; Matricaria inodora (Efficacy in %) (Matricaria inodora [25]; application rate 80 g/ha): 100%
COC(=O)CCOC(=O)CSc1cc(-n2c(=O)cc(C(F)(F)F)n(C)c2=O)c(F)cc1Cl [I.8-2],100%,100%,100%,100%,100%,100%,90%,,80%,80%,80%,100%,100%,100%,,,100%,100%,90%,,Matricaria inodora (Efficacy in %) (Matricaria inodora [1]; application rate 320 g/ha): 100%; Veronica persica (Efficacy in %) (Veronica persica [2]; application rate 80 g/ha): 100%; Stellaria media (Efficacy in %) (Stellaria media [5]; application rate 320 g/ha): 100%; Amaranthus retroflexus (Efficacy in %) (Amaranthus retroflexus [7]; application rate 20 g/ha): 100%; Lolium rigidum (Efficacy in %) (Lolium rigidum [11]; application rate 80 g/ha): 90%; Stellaria media (Efficacy in %) (Stellaria media [17]; application rate 20 g/ha): 100%; Viola tricolor (Efficacy in %) (Viola tricolor [18]; application rate 80 g/ha): 100%; Amaranthus retroflexus (Efficacy in %) (Amaranthus retroflexus [19]; application rate 20 g/ha): 100%; Polygonum convolvulus (Efficacy in %) (Polygonum convolvulus [20]; application rate 20 g/ha): 100%; Hordeum murinum (Efficacy in %) (Hordeum murinum [24]; application rate 20 g/ha): 80%; Alopecurus myosuroides (Efficacy in %) (Alopecurus myosuroides [26]): 80%; Matricaria inodora (Efficacy in %) (Matricaria inodora [25]; application rate 20 g/ha): 100%
COC(=O)COC(=O)CSc1cc(-n2c(=O)cc(C(F)(F)F)n(C)c2=O)c(F)cc1Cl [I.8-42],100%,100%,100%,100%,100%,100%,100%,80%,80%,,80%,100%,100%,100%,100%,100%,100%,100%,,80%,Triticum aestivum (Efficacy in %) (Triticum aestivum; application rate 5 g/ha): 20%; Oryza sativa (Efficacy in %) (Oryza sativa; application rate 20 g/ha): 0%; Matricaria inodora (Efficacy in %) (Matricaria inodora [1]; application rate 320 g/ha): 100%; Veronica persica (Efficacy in %) (Veronica persica [2]; application rate 320 g/ha): 100%; Stellaria media (Efficacy in %) (Stellaria media [5]; application rate 320 g/ha): 100%; Amaranthus retroflexus (Efficacy in %) (Amaranthus retroflexus [7]; application rate 20 g/ha): 100%; Viola tricolor (Efficacy in %) (Viola tricolor [18]; application rate 80 g/ha): 100%; Amaranthus retroflexus (Efficacy in %) (Amaranthus retroflexus [19]; application rate 20 g/ha): 100%; Matricaria inodora (Efficacy in %) (Matricaria inodora [25]; application rate 20 g/ha): 100%

# — US11274083B2, “Substituted thiophenyl uracils, salts thereof and the use thereof as herbicidal agents” (Syngenta Crop Protection AG, priority 2017, dated 2022)
